Data published in PMC8568133, “Evaluation of bisphenylthiazoles as a promising class for combating multidrug-resistant fungal infections” (PLoS ONE, 2021).
≈ marks a conversion by molar mass, not a printed value. Where two headings read alike, the source gives them in different places.

How the values were obtained:
[1] = tested on: E. coli JW55031 (tolC-mutant); assay: microbe, parasite or virus in culture; type: cell-based, Escherichia coli; conditions: Escherichia coli
Summary of the method: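 Broth microdilution per CLSI with ~5 × 10^5 CFU/mL inoculum and serially diluted compounds. S. aureus and E. coli were tested in CAMHB, aerobic, 37 °C, 18–20 h; C. difficile in supplemented brain heart infusion broth (yeast extract, hemin, vitamin K), anaerobic, 37 °C, 48 h. MIC read as visible growth.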

Candida glabrata = assay: Antifungal broth microdilution MIC (50% growth inhibition) and MFC; type: cell-based; conditions: Nakaseomyces glabratus; for MIC: read-out: MIC
Summary of the method: (§1)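 MICs came from CLSI broth microdilution against clinical isolates, scored as 50% inhibition at 35 °C after 24 h (Candida) or 48 h (Cryptococcus). MFC is the lowest concentration cutting growth by 99.9% on YPD agar.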

Candida krusei = assay: as above; type: cell-based; conditions: Pichia kudriavzevii; for MIC: read-out: MIC
Summary of the method: as §1

Candida albicans = assay: as above; type: cell-based; conditions: Candida albicans; for MIC: read-out: MIC
Summary of the method: (§2)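 CLSI broth microdilution, 128 to 0.06 μg/mL in triplicate, on clinical isolates; MIC is lowest concentration giving 50% growth inhibition after 24 h (Candida) or 48 h (Cryptococcus) at 35 °C. MFC: no-growth wells plated on YPD agar, 24 h at 37 °C, 99.9% reduction; three independent repeats.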

Candida tropicalis = assay: as above; type: cell-based; conditions: Candida tropicalis, ATCC1369, C. tropicalis ATCC 1369
Summary of the method: as §1

Candida auris = assay: as above; type: cell-based; conditions: for MIC: read-out: MIC
Summary of the method: as §2

[2] = ATCC66032, C. glabrata ATCC 66032
[3] = ATCC10231, C. albicans ATCC 10231

Compound `Cc1nc(-c2ccc(-c3ccccc3)cc2)sc1-c1nnc(N[C@@H]2CCCC[C@@H]2N)o1` (relative stereo) [Compound 17, cis-N-{5-[2-((1,1’-Biphenyl)-4-yl)-4-methylthiazol-5-yl]-1,3,4-oxadiazol-2-yl}cyclo-hexane-1,2-diamine] has an MIC [1] greater than 64 µg/mL, an MFC (Candida glabrata; [2]) greater than 64 µg/mL and an MIC (Candida glabrata; [2]) of 0.5 µg/mL (≈ 1.16 µM). For the same compound, the MFC (Candida glabrata; C. glabrata ATCC MYA-2950) was greater than 64 µg/mL, the MIC (Candida glabrata; C. glabrata ATCC MYA-2950) was 0.5 µg/mL (≈ 1.16 µM) and the MIC (Candida krusei; ATCC34135, C. krusei ATCC 34135) was 1 µg/mL (≈ 2.32 µM). The MFC (Candida krusei; C. krusei CAB 396420) was greater than 64 µg/mL, the MIC (Candida krusei; C. krusei CAB 396420) was 1 µg/mL (≈ 2.32 µM) and the MFC (Candida albicans; [3]) was greater than 64 µg/mL. For the same compound, the MIC (Candida albicans; [3]) was 4 µg/mL (≈ 9.27 µM), the MIC (Candida albicans; C. albicans NR-29448 (fluconazole-resistant)) was 2 µg/mL (≈ 4.63 µM) and the MIC (Candida albicans; C. albicans SS5314 (wild-type)) was 1 µg/mL (≈ 2.32 µM). The MFC (Candida albicans; C. albicans NR-29448) was greater than 64 µg/mL, the MFC (Candida tropicalis) was greater than 64 µg/mL and the MIC (Candida tropicalis; read-out: MIC) was 4 µg/mL (≈ 9.27 µM). For the same compound, the MFC (Candida auris; Candida auris 390) was greater than 64 µg/mL, the MIC (Candida auris; Candidozyma auris, C. auris 381) was 1 µg/mL (≈ 2.32 µM) and the MIC (Candida auris; Candidozyma auris, C. auris 382) was 2 µg/mL (≈ 4.63 µM). For the same compound, the MIC (Candida auris; Candidozyma auris, C. auris 383) was 1 µg/mL (≈ 2.32 µM), the MIC (Candida auris; Candidozyma auris, C. auris 384) was 1 µg/mL (≈ 2.32 µM) and the MIC (Candida auris; Candidozyma auris, C. auris 385) was 2 µg/mL (≈ 4.63 µM). For the same compound, the MIC (Candida auris; Candidozyma auris, C. auris 386) was 1 µg/mL (≈ 2.32 µM), the MIC (Candida auris; Candidozyma auris, C. auris 387) was 2 µg/mL (≈ 4.63 µM) and the MIC (Candida auris; Candidozyma auris, C. auris 388) was 1 µg/mL (≈ 2.32 µM). For the same compound, the MIC (Candida auris; Candidozyma auris, C. auris 389) was 2 µg/mL (≈ 4.63 µM), the MIC (Candida auris; Candidozyma auris, C. auris 390) was 1 µg/mL (≈ 2.32 µM) and the MFC (Candida auris; Candidozyma auris, Candida auris 389, read-out: MFC) was greater than 64 µg/mL.
